One experiment has as its target PP2A Phosphatase (Homo sapiens, UniProt P67775). In words: Okadaic acid PP2A phosphatase inhibition, Fe(III) fluorescence quench assay. The settings on record: PP2A 22 milli Units, 30 μM Lissamine Rhodamine phospho Kemptide, 60 minutes, 96-well; read-out: calculated IC50. The class given is biochemical. The text has this: Okadaic Acid, another phosphatase inhibitor, solubilized in DMSO, was titrated in triplicate in phosphatase dilution buffer over 24 wells in white 96-well polystyrene COSTAR plate. […] The results are illustrated in FIG. 10.

Experiment [1] concerns the target PKA (protein kinase A) catalytic unit, Promega. In words: cell-based or functional assay.

Results on 2 molecules are retold here after patent publication US7306928B2, “Homogenous assay for enzymatic activity” (Pierce Biotechnology, Inc., priority 2002, dated 2007).

Sequence of PP2A Phosphatase (P67775 whole entry): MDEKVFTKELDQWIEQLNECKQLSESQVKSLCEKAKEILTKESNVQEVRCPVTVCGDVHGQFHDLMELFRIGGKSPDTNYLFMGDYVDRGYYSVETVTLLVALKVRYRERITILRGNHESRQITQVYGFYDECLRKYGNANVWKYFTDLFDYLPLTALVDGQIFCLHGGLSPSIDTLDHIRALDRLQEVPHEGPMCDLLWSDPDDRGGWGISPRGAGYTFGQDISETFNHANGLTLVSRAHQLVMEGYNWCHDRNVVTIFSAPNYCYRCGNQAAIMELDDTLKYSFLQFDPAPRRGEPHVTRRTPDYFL

The term IC50 denotes the point on the concentration scale where inhibition reaches its midpoint. Regarding `C=C1[C@@H](O)[C@@H]2O[C@]3(CC[C@H](/C=C/[C@@H](C)[C@@H]4CC(C)=C[C@@]5(O[C@H](C[C@@](C)(O)C(=O)O)CC[C@H]5O)O4)O3)CC[C@H]2O[C@@H]1[C@@H](O)C[C@H](C)[C@H]1O[C@@]2(CCCCO2)CC[C@H]1C` [Okadaic Acid], on PP2A Phosphatase, the IC50 was 1.5 nM.
Regarding “PKI, a known synthetic peptide inhibitor of PKA”, in experiment [1], the IC50 of inhibition of PKA kinase activity (phosphorylation of Lissamine Rhodamine-labeled Kemptide, Fe(III) fluorescence quench readout) stood at 2.6 nM.
